Measurements taken from patent US9580444B2, “Polycyclic pyrazolinone derivative and herbicide comprising same as effective component thereof” (priority 2013, dated 2017).

system: Eleocharis acicularis (needle spikerush); experiment: Test Example-1: herbicidal effect by a treatment before weeds are generated under submerged conditions; type: in vivo; settings: 500 g a.i/ha, pre-emergence treatment, about 15 days after treatment, score 0-5
Procedure, shortened: (§1)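 Paddy soil in cups was puddled, seeded with the weeds and kept flooded; compound as wettable powder or emulsifiable concentrate was diluted and applied into the water on the seeding day at a set dosage. Effect was scored about 15 days later on a 0–5 scale.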

Row | Structure (SMILES) | Herbicidal effect Eleocharis acicularis
1 | C#CCOc1cc(-c2c(Cl)n3n(c2=O)CCCC3)ccc1Cl [Example 1-62] | 5 (Herbicidal effect/phytotoxicity was 90% or greater)
2 | O=c1c(-c2ccc(Cl)c(OC3CCCC3)c2)c(Cl)n2n1CCCC2 [Example 1-52] | 5 (Herbicidal effect/phytotoxicity was 90% or greater)
3 | C=CCOc1cc(-c2c(Cl)n3n(c2=O)CCCC3)c(F)cc1F [Example 1-101] | 5 (Herbicidal effect/phytotoxicity was 90% or greater)
4 | CC(C)=CCOc1cc(-c2c(Cl)n3n(c2=O)CCCC3)c(F)cc1Cl [Example 1-219] | 5 (Herbicidal effect/phytotoxicity was 90% or greater)
5 | O=c1c(-c2cc(OCc3ccc(F)cc3)c(Cl)cc2F)c(Cl)n2n1CCCC2 [Example 1-192] | 5 (Herbicidal effect/phytotoxicity was 90% or greater)

system: Echinochloa oryzicola (barnyard grass); experiment: as above; type: in vivo; settings: 500 g a.i/ha, pre-emergence treatment, about 15 days after treatment, score 0-5
Procedure, shortened: as §1

Row | Structure (SMILES) | Herbicidal effect Echinochloa oryzicola
6 | C#CCOc1cc(-c2c(Cl)n3n(c2=O)CCCC3)ccc1Cl [Example 1-62] | 5 (Herbicidal effect/phytotoxicity was 90% or greater)
7 | O=c1c(-c2ccc(Cl)c(OC3CCCC3)c2)c(Cl)n2n1CCCC2 [Example 1-52] | 5 (Herbicidal effect/phytotoxicity was 90% or greater)
8 | C=CCOc1cc(-c2c(Cl)n3n(c2=O)CCCC3)c(F)cc1F [Example 1-101] | 5 (Herbicidal effect/phytotoxicity was 90% or greater)
9 | CC(C)=CCOc1cc(-c2c(Cl)n3n(c2=O)CCCC3)c(F)cc1Cl [Example 1-219] | 5 (Herbicidal effect/phytotoxicity was 90% or greater)
10 | O=c1c(-c2cc(OCc3ccc(F)cc3)c(Cl)cc2F)c(Cl)n2n1CCCC2 [Example 1-192] | 5 (Herbicidal effect/phytotoxicity was 90% or greater)

system: Monochoria vaginalis (monochoria); experiment: as above; type: in vivo; settings: 500 g a.i/ha, pre-emergence treatment, about 15 days after treatment, score 0-5
Procedure, shortened: as §1

Row | Structure (SMILES) | Herbicidal effect Monochoria vaginalis
11 | C#CCOc1cc(-c2c(Cl)n3n(c2=O)CCCC3)ccc1Cl [Example 1-62] | 5 (Herbicidal effect/phytotoxicity was 90% or greater)
12 | O=c1c(-c2ccc(Cl)c(OC3CCCC3)c2)c(Cl)n2n1CCCC2 [Example 1-52] | 5 (Herbicidal effect/phytotoxicity was 90% or greater)
13 | C=CCOc1cc(-c2c(Cl)n3n(c2=O)CCCC3)c(F)cc1F [Example 1-101] | 5 (Herbicidal effect/phytotoxicity was 90% or greater)
14 | CC(C)=CCOc1cc(-c2c(Cl)n3n(c2=O)CCCC3)c(F)cc1Cl [Example 1-219] | 5 (Herbicidal effect/phytotoxicity was 90% or greater)
15 | O=c1c(-c2cc(OCc3ccc(F)cc3)c(Cl)cc2F)c(Cl)n2n1CCCC2 [Example 1-192] | 5 (Herbicidal effect/phytotoxicity was 90% or greater)

system: other annual broad leaf weeds (Lindernia procumbens, Rotala indica, Elatine triandra); experiment: as above; type: in vivo; settings: 500 g a.i/ha, pre-emergence treatment, about 15 days after treatment, score 0-5
Procedure, shortened: as §1

Row | Structure (SMILES) | Herbicidal effect Broadleaf weed
16 | C#CCOc1cc(-c2c(Cl)n3n(c2=O)CCCC3)ccc1Cl [Example 1-62] | 5 (Herbicidal effect/phytotoxicity was 90% or greater)
17 | O=c1c(-c2ccc(Cl)c(OC3CCCC3)c2)c(Cl)n2n1CCCC2 [Example 1-52] | 5 (Herbicidal effect/phytotoxicity was 90% or greater)
18 | C=CCOc1cc(-c2c(Cl)n3n(c2=O)CCCC3)c(F)cc1F [Example 1-101] | 5 (Herbicidal effect/phytotoxicity was 90% or greater)
19 | CC(C)=CCOc1cc(-c2c(Cl)n3n(c2=O)CCCC3)c(F)cc1Cl [Example 1-219] | 5 (Herbicidal effect/phytotoxicity was 90% or greater)
20 | O=c1c(-c2cc(OCc3ccc(F)cc3)c(Cl)cc2F)c(Cl)n2n1CCCC2 [Example 1-192] | 5 (Herbicidal effect/phytotoxicity was 90% or greater)

system: Scirpus juncoides (bulrush); experiment: as above; type: in vivo; settings: 500 g a.i/ha, pre-emergence treatment, about 15 days after treatment, score 0-5
Procedure, shortened: as §1

Row | Structure (SMILES) | Herbicidal effect Scirpus juncoides
21 | C#CCOc1cc(-c2c(Cl)n3n(c2=O)CCCC3)ccc1Cl [Example 1-62] | 5 (Herbicidal effect/phytotoxicity was 90% or greater)
22 | O=c1c(-c2ccc(Cl)c(OC3CCCC3)c2)c(Cl)n2n1CCCC2 [Example 1-52] | 5 (Herbicidal effect/phytotoxicity was 90% or greater)
23 | C=CCOc1cc(-c2c(Cl)n3n(c2=O)CCCC3)c(F)cc1F [Example 1-101] | 5 (Herbicidal effect/phytotoxicity was 90% or greater)
24 | CC(C)=CCOc1cc(-c2c(Cl)n3n(c2=O)CCCC3)c(F)cc1Cl [Example 1-219] | 5 (Herbicidal effect/phytotoxicity was 90% or greater)
25 | O=c1c(-c2cc(OCc3ccc(F)cc3)c(Cl)cc2F)c(Cl)n2n1CCCC2 [Example 1-192] | 5 (Herbicidal effect/phytotoxicity was 90% or greater)

system: Cyperus difformis (smallflower umbrella plant); experiment: as above; type: in vivo; settings: 500 g a.i/ha, pre-emergence treatment, about 15 days after treatment, score 0-5
Procedure, shortened: as §1

Row | Structure (SMILES) | Herbicidal effect Cyperus difformis
26 | C#CCOc1cc(-c2c(Cl)n3n(c2=O)CCCC3)ccc1Cl [Example 1-62] | 5 (Herbicidal effect/phytotoxicity was 90% or greater)
27 | O=c1c(-c2ccc(Cl)c(OC3CCCC3)c2)c(Cl)n2n1CCCC2 [Example 1-52] | 5 (Herbicidal effect/phytotoxicity was 90% or greater)
28 | C=CCOc1cc(-c2c(Cl)n3n(c2=O)CCCC3)c(F)cc1F [Example 1-101] | 5 (Herbicidal effect/phytotoxicity was 90% or greater)
29 | CC(C)=CCOc1cc(-c2c(Cl)n3n(c2=O)CCCC3)c(F)cc1Cl [Example 1-219] | 5 (Herbicidal effect/phytotoxicity was 90% or greater)
30 | O=c1c(-c2cc(OCc3ccc(F)cc3)c(Cl)cc2F)c(Cl)n2n1CCCC2 [Example 1-192] | 5 (Herbicidal effect/phytotoxicity was 90% or greater)

system: Chenopodium album (common lambsquarters); experiment: Test Example-4: herbicidal effect by a foliage treatment after weeds are generated under upland field conditions; type: in vivo; settings: 500 g a.i/ha, foliage treatment after emergence, about 14 days after treatment, score 0-5
Source text: (§2) Using the formulation prepared according to the methods described above, the herbicidal effect of the bicyclic pyrazolinone derivative of the invention according to the methods shown in Test Examples below was examined. The herbicidal effect with respect to the test weeds or the phytotoxicity with respect to the test crops was examined according to the following criteria, and evaluated in six stage scores of 0 to 5. A vat having an area of 65 cm^2 and a depth of 2 cm was filled with upland soil, then, seeds of Amaranthus viridis (green amaranthus), Abutilon theophrasti (velvetleaf), Chenopodium album (common lambsquarters), […]. While watering was suitably performed on there, the seeds were grown for 14 days. A wettable powder or an emulsifiable concentrate of the compound of the present invention prepared according to Formulation Example was diluted, and a spray treatment was uniformly performed on the foliage portion of the plant so as to be a predetermined dosage in the amount of water of 4000 L per hectare. The herbicidal effect with respect to the test weeds and the phytotoxicity with respect to corn about 14 days after the treatment were evaluated according to the evaluation criteria in six stages of 0 to 5 described above.

Row | Structure (SMILES) | Herbicidal effect Chenopodium album
31 | C#CCOc1cc(-c2c(Cl)n3n(c2=O)CCCC3)ccc1Cl [Example 1-62] | 5 (Herbicidal effect/phytotoxicity was 90% or greater)
32 | O=c1c(-c2ccc(Cl)c(OC3CCCC3)c2)c(Cl)n2n1CCCC2 [Example 1-52] | 5 (Herbicidal effect/phytotoxicity was 90% or greater)
33 | C=CCOc1cc(-c2c(Cl)n3n(c2=O)CCCC3)c(F)cc1F [Example 1-101] | 5 (Herbicidal effect/phytotoxicity was 90% or greater)
34 | CC(C)=CCOc1cc(-c2c(Cl)n3n(c2=O)CCCC3)c(F)cc1Cl [Example 1-219] | 5 (Herbicidal effect/phytotoxicity was 90% or greater)
35 | O=c1c(-c2cc(OCc3ccc(F)cc3)c(Cl)cc2F)c(Cl)n2n1CCCC2 [Example 1-192] | 5 (Herbicidal effect/phytotoxicity was 90% or greater)

system: Abutilon theophrasti (velvetleaf); experiment: as above; type: in vivo; settings: 500 g a.i/ha, foliage treatment after emergence, about 14 days after treatment, score 0-5
Source text: as §2

Row | Structure (SMILES) | Herbicidal effect Abutilon theophrast
36 | C#CCOc1cc(-c2c(Cl)n3n(c2=O)CCCC3)ccc1Cl [Example 1-62] | 5 (Herbicidal effect/phytotoxicity was 90% or greater)
37 | O=c1c(-c2ccc(Cl)c(OC3CCCC3)c2)c(Cl)n2n1CCCC2 [Example 1-52] | 5 (Herbicidal effect/phytotoxicity was 90% or greater)
38 | C=CCOc1cc(-c2c(Cl)n3n(c2=O)CCCC3)c(F)cc1F [Example 1-101] | 5 (Herbicidal effect/phytotoxicity was 90% or greater)
39 | CC(C)=CCOc1cc(-c2c(Cl)n3n(c2=O)CCCC3)c(F)cc1Cl [Example 1-219] | 5 (Herbicidal effect/phytotoxicity was 90% or greater)
40 | O=c1c(-c2cc(OCc3ccc(F)cc3)c(Cl)cc2F)c(Cl)n2n1CCCC2 [Example 1-192] | 5 (Herbicidal effect/phytotoxicity was 90% or greater)

system: Amaranthus viridis (green amaranthus); experiment: as above; type: in vivo; settings: 500 g a.i/ha, foliage treatment after emergence, about 14 days after treatment, score 0-5
Source text: as §2

Row | Structure (SMILES) | Herbicidal effect Amaranthus viridis
41 | C#CCOc1cc(-c2c(Cl)n3n(c2=O)CCCC3)ccc1Cl [Example 1-62] | 5 (Herbicidal effect/phytotoxicity was 90% or greater)
42 | O=c1c(-c2ccc(Cl)c(OC3CCCC3)c2)c(Cl)n2n1CCCC2 [Example 1-52] | 5 (Herbicidal effect/phytotoxicity was 90% or greater)
43 | C=CCOc1cc(-c2c(Cl)n3n(c2=O)CCCC3)c(F)cc1F [Example 1-101] | 5 (Herbicidal effect/phytotoxicity was 90% or greater)
44 | CC(C)=CCOc1cc(-c2c(Cl)n3n(c2=O)CCCC3)c(F)cc1Cl [Example 1-219] | 5 (Herbicidal effect/phytotoxicity was 90% or greater)
45 | O=c1c(-c2cc(OCc3ccc(F)cc3)c(Cl)cc2F)c(Cl)n2n1CCCC2 [Example 1-192] | 5 (Herbicidal effect/phytotoxicity was 90% or greater)

system: corn; experiment: Test Example-4: phytotoxicity by a foliage treatment after weeds are generated under upland field conditions; type: in vivo; settings: 500 g a.i/ha, foliage treatment after emergence, about 14 days after treatment, score 0-5
Source text: as §2

Row | Structure (SMILES) | Phytotoxicity Corn
46 | C#CCOc1cc(-c2c(Cl)n3n(c2=O)CCCC3)ccc1Cl [Example 1-62] | 0 (Herbicidal effect/phytotoxicity was 0% to 10%)
47 | O=c1c(-c2ccc(Cl)c(OC3CCCC3)c2)c(Cl)n2n1CCCC2 [Example 1-52] | 0 (Herbicidal effect/phytotoxicity was 0% to 10%)
48 | C=CCOc1cc(-c2c(Cl)n3n(c2=O)CCCC3)c(F)cc1F [Example 1-101] | 3 (Herbicidal effect/phytotoxicity was 50% to 70%)
49 | CC(C)=CCOc1cc(-c2c(Cl)n3n(c2=O)CCCC3)c(F)cc1Cl [Example 1-219] | 2 (Herbicidal effect/phytotoxicity was 30% to 50%)
50 | O=c1c(-c2cc(OCc3ccc(F)cc3)c(Cl)cc2F)c(Cl)n2n1CCCC2 [Example 1-192] | 1 (Herbicidal effect/phytotoxicity was 10% to 30%)
